Experimental data reported in patent publication US7008936B2, “Combination of epothilone analogs and chemotherapeutic agents for the treatment of proliferative diseases” (Bristol-Myers Squibb Company, priority 2002, dated 2006).

What was measured:
advanced solid tumors = test: Compound 1 followed by carboplatin IV every 3 weeks in patients with advanced cancer (Example 1)
Protocol: Compound 1 followed by carboplatin was given intravenously every 3 weeks to patients with advanced solid tumors treated with ≦2 prior chemotherapy regimens. Pharmacokinetics of both drugs were measured on the first course. Twenty-five (25) patients were treated at four dose levels—combining Compound 1 (30 or 40 mg/m^2) with […] or AUC 5 or 6 (Calvert formula; Calvert et al., J. Clin. Oncol., 1989, 7, 1748–1756) of carboplatin. A total of 91 courses were given.

advanced cancer = test: Phase I study of Compound 1 in combination with carboplatin in patients with advanced cancer, day 1 and split day 1/8 schedules (Example 2)
Protocol: Compound 1 was assessed in Phase I studies in combination with other chemotherapeutic agents. Compound 1 was given as a 60-minute infusion, 30 minutes prior to a 30-minute carboplatin infusion on day 1 every three weeks (or 21 days). Pharmacokinetic samples were taken during the first cycle. Twenty-five (25) patients were treated on this schedule at 4 dose levels (Compound 1 doses of 30 mg/m^2 or 40 mg/m^2 with carboplatin doses of […], or AUC 5 or 6).
A further 14 patients were recruited onto an amended schedule with Compound 1 doses being split and administered on days 1 and 8 every three weeks (or 21 days) and carboplatin being administered on day 1.

[1] = Compound 1 plasma levels (pharmacokinetic samples, first cycle) in Phase I combination study; assay type: in vivo, human; details: patients, IV infusion, with carboplatin
Excerpt: Pharmacokinetic samples were taken during the first cycle.

[2] = test system: paclitaxel-sensitive (A2780, HCT116 and LS174T) and paclitaxel-resistant human colon tumors (HCT116/VM46), ovarian carcinoma (Pat-7 and A2780Tax) and breast …; test: Preclinical pharmacology studies, antitumor activity in tumor models; assay type: in vivo

For `C/C(=C\c1csc(C)n1)[C@@H]1C[C@@H]2O[C@]2(C)CCC[C@H](C)[C@H](O)[C@@H](C)C(=O)C(C)(C)[C@@H](O)CC(=O)N1` (relative stereo) [Compound 1, [1S-1R*,3R*(E),7R*,10S*,11R*,12R*,16S*]]-7,11-dihydroxy-8,8,10,12,16-pentamethyl-3-[1-methyl-2-(2-methyl-4-thiazolyl)ethenyl]-4-aza-17-oxabicyclo[14.1.0]heptadecane-5,9-dione], the confirmed partial responses (advanced solid tumors; Compound 1 30 or 40 mg/m^2 + carboplatin AUC 5 or 6, IV every 3 weeks, 25 patients, breast, neuroendocrine and unknown primary carcinomas) was 3/25, the “patients with disease stabilization and clinical benefit from treatment” value (advanced solid tumors; Compound 1 + carboplatin every 3 weeks, 25 patients treated) was 12 patients and the “dose at which CTC grade 4 neutropenia was dose limiting” value (advanced solid tumors; human, in vivo) was 40 mg/m^2. The “maximum tolerated dose of Compound 1” value (advanced solid tumors; with carboplatin AUC 5 (Calvert formula), every 3 weeks) was 40 mg/m^2, the “patients showing disease stabilization for more than two months” value (advanced cancer; Compound 1 + carboplatin) was 48% and the major toxicities (advanced cancer; Compound 1 + carboplatin, 39 patients over 7 dose levels) was “myelosuppression, myalgia and peripheral neuropathy”. For the same compound, the partial responses (advanced cancer; Compound 1 + carboplatin, 39 patients, 2 breast, neuro-endocrine, unknown primary carcinomas and mesothelioma) was 5 patients, the “dose at which DLT was observed, split schedule” value (advanced cancer; Compound 1 on days 1 and 8 every three weeks with carboplatin AUC 6 on day 1) was 25 mg/m^2 and the “dose at which dose limiting toxicity (DLT) occurred” value (advanced cancer; Compound 1 day 1 every three weeks with carboplatin AUC 6, myelosuppression as major toxicity) was 40 mg/m^2. The “patients who withdrew from the study because of study drug toxicity” value (advanced cancer; peripheral neuropathy reported in all these patients, 39 patients treated) was “Eleven”, the half-life ([1]; human) was ~30 h and the “Cmax and AUC” value [1] was “increase with dose”. The volume of distribution [1] was “high”, the oral efficacy ([2]; oral administration, comparable to parenteral administration) was “orally efficacious” and the antitumor activity ([2]; paclitaxel-sensitive and paclitaxel-resistant tumor models) was “very impressive and broad spectrum of antitumor activity”.
